Data as given in patent US20020013306A1, “TERPYRIDINE-PLATINUM(II) COMPLEXES” (priority 1996, published 2002).
Several values for one entry are separate records, joined by “and”; a condition that tells them apart may be missing. Equal values may be shown once. Read-outs that look alike come from different tables or passages of the source.

Columns and labels:
[1] = system: CH1cis^R human ovarian carcinoma cell line (cisplatin resistant); experiment: 96 h growth inhibition, sulforhodamine B assay, CH1cisR; assay type: cell-based; details: for IC50: 96 h exposure, growth inhibition, v = variable (mean); for RF resistance factor: IC50 resistant line/IC50 parent line: CH1cis^R / CH1
[2] = system: A2780 human ovarian carcinoma cell line; experiment: 96 h growth inhibition, sulforhodamine B assay, A2780; assay type: cell-based; details: 96 h exposure, v = variable (mean)
[3] = system: SKOV3 human ovarian carcinoma cell line; experiment: 96 h growth inhibition, sulforhodamine B assay, SKOV3; assay type: cell-based; details: 96 h exposure, v = variable (mean)
[4] = system: CH1 human ovarian carcinoma cell line; experiment: 96 h growth inhibition, sulforhodamine B assay, CH1; assay type: cell-based; details: 96 h exposure, v = variable (mean)
[5] = system: CH1dox^R human ovarian carcinoma cell line (doxorubicin resistant); experiment: 96 h growth inhibition, sulforhodamine B assay, CH1doxR; assay type: cell-based; details: for IC50: 96 h exposure, growth inhibition; for RF resistance factor: IC50 resistant line/IC50 parent line: CH1dox^R / CH1
[6] = system: A2780cis^R human ovarian carcinoma cell line (cisplatin resistant); experiment: 96 h growth inhibition, sulforhodamine B assay, A2780cisR; assay type: cell-based; details: for IC50: 96 h exposure, growth inhibition, v = variable (mean); for RF resistance factor: IC50 resistant line/IC50 parent line: A2780cis^R / A2780
[7] = system: T. brucei (S427) bloodstream trypomastigotes; experiment: Trypanosoma brucei bloodstream trypomastigote culture; assay type: cell-based
[8] = system: T. cruzi (MHOM/BR/00/Y); experiment: Trypanosoma cruzi in mouse peritoneal macrophages; assay type: cell-based
Procedure: Trypanosoma cruzi: […] Drug activity was determined from the % of infected macrophages in treated cultures. Nifurtimox was used as the positive control.

[9] = system: P falciparum (chloroquin resistant strain K1); experiment: In vitro antimalarial activity, chloroquine resistant K1; details: for % Inhibition, MQ, K1 P. falciparum: duplicates
Procedure: Plasmodium falciparum: P falciparum (chloroquin resistant strain K1) was cultured at 37° C. in a 5% suspension of infected so erythrocytes (group A Rh^+) in complete medium as described by E L Elueze, S L Croft and D C Warhurst, J Antimicrobial Chemotherapy, 1996, 37, 511-518. The in vitro antimalarial activity of compounds were likewise determined according to their protocol. Mefloquin was used as the positive control.”

Molecule | IC50 [1] | RF resistance factor: IC50 resistant line/IC50 parent line [1] | IC50 [2] | IC50 [3] | IC50 [4] | IC50 [5] | RF resistance factor: IC50 resistant line/IC50 parent line [5] | IC50 [6] | RF resistance factor: IC50 resistant line/IC50 parent line [6] | % Inhibition, Trypanosoma brucei ([7]; 0.1 μM) | % Inhibition, Trypanosoma brucei ([7]; 0.3 μM) | % Inhibition, Trypanosoma brucei ([7]; 1 μM) | % Inhibition, Trypanosoma brucei ([7]; 3 μM) | % Inhibition, Trypanosoma brucei ([7]; 10 μM) | % Inhibition, Trypanosoma brucei ([7]; 30 μM) | other results
4,4′-Vinylidenedipyridine bis[2,2′:6′,2″-terpyridine platinum II] tetrafluoroborate [Compound A14] | 0.63 µM | 0.46 | 1.6 µM | 1.3 µM | 1.35 µM | 5.1 µM | 3.8 | 2.4 µM | 1.5 |  |  |  |  |  |  | 
4,4′-Vinylidenedipyridine bis[4′-(4-bromophenyl)-2,2′:6′,2″-terpyridine platinum II]tetrafluoroborate [Compound Q14] | 2.8 µM | 1.4 |  | 4.7 µM | 2 µM | 1.9 µM | 0.9 | 2.3 µM |  |  |  |  |  |  |  | 
4,4′-Vinylidenedipyridine bis[4′-chloro-2,2′:6′,2″-terpyridine platinum II]tetrafluoroborate [Compound I14] | 17 µM | 1.1 |  | 15 µM | 15 µM | 7.8 µM | 0.5 | 19 µM |  |  |  |  |  |  |  | 
4-Picoline 4′-amino-2,2′:6′,2″-terpyridine platinum II tetrafluoroborate [X] | 16.5 µM | 1.1 | 25 µM | 25 µM | 15.1 µM | 17 µM | 1.1 | 21 µM | 0.8 | 0% | 0% | 100% | 100% | 100% | 100% | 
Brc1cc[n+]([Pt-2]23[n+]4ccccc4-c4cccc([n+]42)-c2cccc[n+]23)cc1.F[B-](F)(F)F.F[B-](F)(F)F [Compound A1] | 2.1 µM | 1.0 | 5.8 µM | 9.2 µM | 2.1 µM | 0.85 µM | 0.41 | 6.7 µM | 1.16 | 100% | 100% | 100% | 100% | 100% | 100% | % Inhibition, Trypanosoma brucei ([7]; 0.03 μM): 100%
CC(=O)c1cc[n+]([Pt-2]23[n+]4ccccc4-c4cccc([n+]42)-c2cccc[n+]23)cc1.F[B-](F)(F)F.F[B-](F)(F)F [Compound A2] | 2.3 µM | 1.05 | 5.9 µM | 11.1 µM | 2.2 µM | 1.18 µM | 0.54 | 7.5 µM | 1.25 | 62.7% | 86.4% | 100% | 100% | 100% | 100% | % Inhibition, Trypanosoma cruzi ([8]; 1 μM): 3.8%; % Inhibition, Trypanosoma brucei ([7]; 0.03 μM): 50.0%
CN(C)c1cc[n+]([Pt-2]23[n+]4ccccc4-c4cccc([n+]42)-c2cccc[n+]23)cc1.F[B-](F)(F)F.F[B-](F)(F)F [Compound A3] | 7.5 µM | 1.2 | 16 µM | 13 µM | 6.1 µM | 3.95 µM | 0.6 | 21.5 µM | 1.3 | 44.6% | 100% | 100% | 100% | 100% | 100% | % Inhibition, Trypanosoma cruzi ([8]; 1 μM): 30.3%; % Inhibition, Trypanosoma cruzi ([8]; 3 μM): 85.8%; % Inhibition, Trypanosoma cruzi ([8]; 10 μM): 100%; % Inhibition, Trypanosoma cruzi ([8]; 30 μM): 99.8%
F[B-](F)(F)F.F[B-](F)(F)F.OCc1cc[n+]([Pt-2]23[n+]4ccccc4-c4cccc([n+]42)-c2cccc[n+]23)cc1 [Compound A9] | 12.5 µM | 0.9 | 40 µM | 17 µM | 14 µM | 5 µM | 0.3 | 92 µM | 2.3 | 32.5% | 100% | 100% | 100% | 100% | 100% | 
Brc1ccc(-c2cc(-c3ccccn3)nc(-c3ccccn3)c2)cc1.F[B-](F)(F)F.F[B-](F)(F)F.N.[Pt+2] [Compound Q12, Ammonio 4′-(4-bromophenyl)-2,2′:6′,2″-terpyridine platinum II tetrafluoroborate] |  |  |  |  |  |  |  |  |  | 100% | 100% | 100% | 100% | 100% | 100% | 
OC(c1cc(C(F)(F)F)nc2c(C(F)(F)F)cccc12)C1CCCCN1 (centres unmarked) [MQ, Mefloquin, reference compound] |  |  |  |  |  |  |  |  |  |  |  |  |  |  |  | % Inhibition, MQ, K1 P. falciparum ([9]; Concn. MQ 0.015625 μM): 0%; % Inhibition, MQ, K1 P. falciparum ([9]; Concn. MQ 0.0626 μM): 77.5% and 56.9%; % Inhibition, MQ, K1 P. falciparum ([9]; Concn. MQ 0.5 μM): 96.4% and 95.3%; % Inhibition, MQ, K1 P. falciparum ([9]; Concn. MQ 1 μM): 94.9% and 91.6%; % Inhibition, MQ, K1 P. falciparum ([9]; Concn. MQ 2 μM): 96.3% and 94.7%; % Inhibition, MQ, K1 P. falciparum ([9]; Concn. MQ 025 μM): 98.0% and 97.2%; % Inhibition, MQ, K1 P. falciparum ([9]; Concn. MQ 003125 μM): 0.5% and 0%; % Inhibition, MQ, K1 P. falciparum ([9]; Concn. MQ): 93.6% and 94.8%; IC50 ([9]; read-out: IC50 (avg), K1 P. falciparum, average of duplicates): 0.06 µM; IC50 ([9]; read-out: IC50, K1 P. falciparum, each duplicate (1),(2)): 0.05 µM and 0.06 µM
Cc1ccncc1.F[B-](F)(F)F.F[B-](F)(F)F.OCCNc1cc(-c2ccccn2)nc(-c2ccccn2)c1.[Pt+2] [U, (4-Picoline)(4′-(N-2-Hydroxyethyl)amino-2,2′:6′,2″-Terpyridine) Platinum (II) Tetrafluoroborate] |  |  |  |  |  |  |  |  |  | 0% | 0% | 0% | 68.4% | 100% | 100% | % Inhibition, Trypanosoma cruzi ([8]; 1 μM): 0%; % Inhibition, Trypanosoma cruzi ([8]; 3 μM): 0%; % Inhibition, Trypanosoma cruzi ([8]; 10 μM): 0%; % Inhibition, Trypanosoma cruzi ([8]; 30 μM): 18.0%
N.N.[Cl][Pt][Cl] [cisplatin, cis[Pt(NH3)2Cl2], reference compound] | 1.2 µM |  | 0.53 µM | 2.25 µM | 0.4 µM |  |  | 8.8 µM |  |  |  |  |  |  |  | 
CC1CS(=O)(=O)CCN1/N=C/c1ccc([N+](=O)[O-])o1 (centres unmarked) [nifurtimox, Nifurtimox, reference compound] |  |  |  |  |  |  |  |  |  |  |  |  |  |  |  | EC50 ([8]; Trypanosoma cruzi, Peritoneal macrophage, read-out: ED50 against Trypanosoma cruzi): 3 µM
Ammonio 4′-chloro-2,2′:6′,2″-terpyridine platinum II tetrafluoroborate [Compound I12] |  |  |  |  |  |  |  |  |  | 0% | 0% | 100% | 100% | 100% | 100% | 
